Test results from PubChem BioAssay (NCI).
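How tested: cells in 96-well plates exposed to compound for 48 hours at five concentrations. At the GI50, growth is halved. TGI: total growth inhibition.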

Experiments:
Experiment in all cases: NCI tumour cell line growth inhibition, 48 h
786-0 renal = test system: 786-0 renal
A498 renal = test system: A498 renal
A549 NSCLC = test system: A549 NSCLC
ACHN renal = test system: ACHN renal
BT-549 breast = test system: BT-549 breast
CAKI-1 renal = test system: CAKI-1 renal
CCRF-CEM leukemia = test system: CCRF-CEM leukemia
COLO 205 colon = test system: COLO 205 colon
DU-145 prostate = test system: DU-145 prostate
EKVX NSCLC = test system: EKVX NSCLC
HCC-2998 colon = test system: HCC-2998 colon
HCT-116 colon = test system: HCT-116 colon
HCT-15 colon = test system: HCT-15 colon
HL-60(TB) leukemia = test system: HL-60(TB) leukemia
HOP-62 NSCLC = test system: HOP-62 NSCLC
HS 578T breast = test system: HS 578T breast
HT29 colon = test system: HT29 colon
IGROV1 ovarian = test system: IGROV1 ovarian
K-562 leukemia = test system: K-562 leukemia
KM12 colon = test system: KM12 colon
LOX IMVI melanoma = test system: LOX IMVI melanoma
M14 melanoma = test system: M14 melanoma
MALME-3M melanoma = test system: MALME-3M melanoma
MCF7 breast = test system: MCF7 breast
MDA-MB-231 breast = test system: MDA-MB-231 breast
MDA-MB-435 = test system: MDA-MB-435
MOLT-4 leukemia = test system: MOLT-4 leukemia
NCI-H226 lung = test system: NCI-H226 lung
NCI-H23 lung = test system: NCI-H23 lung
NCI-H460 lung = test system: NCI-H460 lung
NCI-H522 lung = test system: NCI-H522 lung
NCI/ADR-RES ovarian = test system: NCI/ADR-RES ovarian
OVCAR-3 ovarian = test system: OVCAR-3 ovarian
OVCAR-4 ovarian = test system: OVCAR-4 ovarian
OVCAR-5 ovarian = test system: OVCAR-5 ovarian
OVCAR-8 ovarian = test system: OVCAR-8 ovarian
PC-3 prostate = test system: PC-3 prostate
RPMI-8226 leukemia = test system: RPMI-8226 leukemia
RXF 393 renal = test system: RXF 393 renal
SF-268 CNS = test system: SF-268 CNS
SF-295 CNS = test system: SF-295 CNS
SF-539 CNS = test system: SF-539 CNS
SK-MEL-2 melanoma = test system: SK-MEL-2 melanoma
SK-MEL-28 melanoma = test system: SK-MEL-28 melanoma
SK-MEL-5 melanoma = test system: SK-MEL-5 melanoma
SK-OV-3 ovarian = test system: SK-OV-3 ovarian
SN12C renal = test system: SN12C renal
SNB-19 CNS = test system: SNB-19 CNS
SNB-75 CNS = test system: SNB-75 CNS
SR leukemia = test system: SR leukemia
SW-620 colon = test system: SW-620 colon
T-47D breast = test system: T-47D breast
TK-10 renal = test system: TK-10 renal
U251 CNS = test system: U251 CNS
UACC-257 melanoma = test system: UACC-257 melanoma
UACC-62 melanoma = test system: UACC-62 melanoma
UO-31 renal = test system: UO-31 renal

Structure (SMILES): C/C(=C\c1c[nH]c2ccccc12)[N+](=O)[O-]
- GI50 (786-0 renal): 4.27 µM
- TGI (786-0 renal): 15.5 µM
- GI50 (A498 renal): 14.9 µM
- TGI (A498 renal): 29.6 µM
- GI50 (A549 NSCLC): 5.85 µM
- TGI (A549 NSCLC): 21.4 µM
- GI50 (ACHN renal): 4.36 µM
- TGI (ACHN renal): 16.6 µM
- GI50 (BT-549 breast): 11 µM
- TGI (BT-549 breast): 24 µM
- GI50 (CAKI-1 renal): 5.67 µM
- TGI (CAKI-1 renal): 18.9 µM
- GI50 (CCRF-CEM leukemia): 1.62 µM
- TGI (CCRF-CEM leukemia): 4.2 µM
- GI50 (COLO 205 colon): 5.06 µM
- TGI (COLO 205 colon): 17.4 µM
- GI50 (DU-145 prostate): 3.73 µM
- TGI (DU-145 prostate): 15.5 µM
- GI50 (EKVX NSCLC): 10.2 µM
- TGI (EKVX NSCLC): 27.1 µM
- GI50 (HCC-2998 colon): 10.5 µM
- TGI (HCC-2998 colon): 23 µM
- GI50 (HCT-116 colon): 2.37 µM
- TGI (HCT-116 colon): 8.08 µM
- GI50 (HCT-15 colon): 2.48 µM
- TGI (HCT-15 colon): 13.7 µM
- GI50 (HL-60(TB) leukemia): 2.3 µM
- TGI (HL-60(TB) leukemia): 6.46 µM
- GI50 (HOP-62 NSCLC): 4.04 µM
- TGI (HOP-62 NSCLC): 13.6 µM
- GI50 (HS 578T breast): 7.61 µM
- TGI (HS 578T breast): 43.8 µM
- GI50 (HT29 colon): 3.02 µM
- TGI (HT29 colon): 12.9 µM
- GI50 (IGROV1 ovarian): 5.43 µM
- TGI (IGROV1 ovarian): 19.2 µM
- GI50 (K-562 leukemia): 4.03 µM
- TGI (K-562 leukemia): 16.5 µM
- GI50 (KM12 colon): 3.98 µM
- TGI (KM12 colon): 15.6 µM
- GI50 (LOX IMVI melanoma): 1.89 µM
- TGI (LOX IMVI melanoma): 4.86 µM
- GI50 (M14 melanoma): 2.57 µM
- TGI (M14 melanoma): 5.65 µM
- GI50 (MALME-3M melanoma): 2.54 µM
- TGI (MALME-3M melanoma): 7.85 µM
- GI50 (MCF7 breast): 2.67 µM
- TGI (MCF7 breast): 28 µM
- GI50 (MDA-MB-231 breast): 11.4 µM
- TGI (MDA-MB-231 breast): 24.5 µM
- GI50 (MDA-MB-435): 5.56 µM
- TGI (MDA-MB-435): 20.1 µM
- GI50 (MOLT-4 leukemia): 2.19 µM
- TGI (MOLT-4 leukemia): 5.83 µM
- GI50 (NCI-H226 lung): 13.3 µM
- TGI (NCI-H226 lung): 30.6 µM
- GI50 (NCI-H23 lung): 10.2 µM
- TGI (NCI-H23 lung): 22.6 µM
- GI50 (NCI-H460 lung): 4.18 µM
- TGI (NCI-H460 lung): 17.4 µM
- GI50 (NCI-H522 lung): 3.19 µM
- TGI (NCI-H522 lung): 11.6 µM
- GI50 (NCI/ADR-RES ovarian): 6.23 µM
- TGI (NCI/ADR-RES ovarian): 19.7 µM
- GI50 (OVCAR-3 ovarian): 8.57 µM
- TGI (OVCAR-3 ovarian): 24.8 µM
- GI50 (OVCAR-4 ovarian): 7.58 µM
- TGI (OVCAR-4 ovarian): 21 µM
- GI50 (OVCAR-5 ovarian): 19.3 µM
- TGI (OVCAR-5 ovarian): 34 µM
- GI50 (OVCAR-8 ovarian): 4.18 µM
- TGI (OVCAR-8 ovarian): 17.9 µM
- GI50 (PC-3 prostate): 4.07 µM
- TGI (PC-3 prostate): 15.4 µM
- GI50 (RPMI-8226 leukemia): 1.81 µM
- TGI (RPMI-8226 leukemia): 4.17 µM
- GI50 (RXF 393 renal): 2.91 µM
- TGI (RXF 393 renal): 11.5 µM
- GI50 (SF-268 CNS): 4.16 µM
- TGI (SF-268 CNS): 19.2 µM
- GI50 (SF-295 CNS): 7.97 µM
- TGI (SF-295 CNS): 22.7 µM
- GI50 (SF-539 CNS): 3.7 µM
- TGI (SF-539 CNS): 15.2 µM
- GI50 (SK-MEL-2 melanoma): 6.24 µM
- TGI (SK-MEL-2 melanoma): 20.8 µM
- GI50 (SK-MEL-28 melanoma): 1.84 µM
- TGI (SK-MEL-28 melanoma): 5.47 µM
- GI50 (SK-MEL-5 melanoma): 5.8 µM
- TGI (SK-MEL-5 melanoma): 19.2 µM
- GI50 (SK-OV-3 ovarian): 11.4 µM
- TGI (SK-OV-3 ovarian): 23.7 µM
- GI50 (SN12C renal): 3.53 µM
- TGI (SN12C renal): 14.4 µM
- GI50 (SNB-19 CNS): 5.82 µM
- TGI (SNB-19 CNS): 20 µM
- GI50 (SNB-75 CNS): 1.89 µM
- TGI (SNB-75 CNS): 6.93 µM
- GI50 (SR leukemia): 1.15 µM
- TGI (SR leukemia): 4.25 µM
- GI50 (SW-620 colon): 5.78 µM
- TGI (SW-620 colon): 26 µM
- GI50 (T-47D breast): 4.27 µM
- TGI (T-47D breast): 22.2 µM
- GI50 (TK-10 renal): 10.8 µM
- TGI (TK-10 renal): 24.5 µM
- GI50 (U251 CNS): 2.14 µM
- TGI (U251 CNS): 7.04 µM
- GI50 (UACC-257 melanoma): 4.89 µM
- TGI (UACC-257 melanoma): 17.1 µM
- GI50 (UACC-62 melanoma): 4.04 µM
- TGI (UACC-62 melanoma): 15.9 µM
- GI50 (UO-31 renal): 4.85 µM
- TGI (UO-31 renal): 17.7 µM
